These results are taken from patent US6506749B2, “7-oxo-pyridopyrimidines (I)” (Syntex (U.S.A.) LLC, priority 2000, dated 2003).

Where a name gives a salt, the structure may show the parent alone.

Test system in one data set: not given
Assay: not given
Conditions: not given
As to `Cc1ccccc1-c1cc2cnc(NC3CCN(S(=O)(=O)CC(F)(F)F)CC3)nc2n(C)c1=O.Cl` [Cpd 128], the melting point was 200 to 204 °C. Regarding `CCn1c(=O)c(-c2ccccc2Cl)cc2cnc(NC3CCOCC3)nc21.Cl` [Cpd 136], the melting point lay in the range of 185.3 to 190.1 °C. Still for that read-out and setting: the same measure for `Cl.N#CCn1c(=O)c(-c2ccccc2Cl)cc2cnc(N[C@H]3CC[C@H](O)CC3)nc21` [Example 44]: 232.1 to 233.4 °C.

`COc1ccccc1-c1cc2cnc(NC3CCN(S(=O)(=O)CC(F)(F)F)CC3)nc2n(C)c1=O.Cl` returned a melting point of 194.7 to 196 °C.

In turn, `CCCS(=O)(=O)N1CCC(Nc2ncc3cc(-c4ccccc4C)c(=O)n(C)c3n2)CC1.Cl` [Cpd 126] came in with a melting point of 211.7 to 212.6 °C. `Cc1ccccc1-c1cc2cnc(NC3CCOCC3)nc2n(C)c1=O.Cl` came in with a melting point of 222.9 to 225.9 °C. In the case of `CN1CCN(Nc2ncc3cc(-c4ccccc4Cl)c(=O)n(C)c3n2)CC1` [Example 85], the melting point fell in the range of 125.7 to 128.1 °C. In turn, `CS(=O)(=O)N1CCC(Nc2ncc3cc(-c4ccccc4Cl)c(=O)n(C4CC4)c3n2)CC1` (as salt: hydrochloride) [Example 88] displayed a melting point of 128 to 141.5 °C. Same read-out and setting: the same measure for `CCS(=O)(=O)CCC(C)Nc1ncc2cc(-c3ccccc3Cl)c(=O)n(C)c2n1` (stereo not drawn) (as salt: hydrochloride) [Example 102]: 160.1 to 167 °C; for `Cl.Cn1c(=O)c(-c2ccccc2Cl)cc2cnc(NC3CC(C)(C)NC(C)(C)C3)nc21`: more than 300 °C. Same read-out and setting: the same measure for `CCCS(=O)(=O)N1CCC(Nc2ncc3cc(-c4ccccc4OC)c(=O)n(C)c3n2)CC1.Cl`: 59.7 to 63.8 °C.

Take `Cl.Cn1c(=O)c(-c2ccccc2Cl)cc2cnc(NN3CCN(CCO)CC3)nc21`: the melting point fell in the range of 274.4 to 274.8 °C. For the compound `Cl.Cn1c(=O)c(-c2ccccc2F)cc2cnc(NC3CCN(S(=O)(=O)CC(F)(F)F)CC3)nc21`, the melting point is 225.9 to 226.4 °C.

As to `COC1CCC(Nc2ncc3cc(-c4ccccc4Cl)c(=O)n(C)c3n2)CC1.Cl` (stereo not drawn), the melting point lay in the range of 189 to 192 °C. `COC(=O)CN1CCC(Nc2ncc3cc(-c4ccccc4Cl)c(=O)n(C)c3n2)CC1.Cl` showed a melting point of 150 to 168 °C.

In the next data set the target is T1, p38 MAP kinase (Homo sapiens, UniProt Q16539).
T1 construct: made in house; host or cells: E. coli (co-expressed with SEK-1 and MEKK to phosphorylate p38)
T1 sequence (Q16539 whole entry): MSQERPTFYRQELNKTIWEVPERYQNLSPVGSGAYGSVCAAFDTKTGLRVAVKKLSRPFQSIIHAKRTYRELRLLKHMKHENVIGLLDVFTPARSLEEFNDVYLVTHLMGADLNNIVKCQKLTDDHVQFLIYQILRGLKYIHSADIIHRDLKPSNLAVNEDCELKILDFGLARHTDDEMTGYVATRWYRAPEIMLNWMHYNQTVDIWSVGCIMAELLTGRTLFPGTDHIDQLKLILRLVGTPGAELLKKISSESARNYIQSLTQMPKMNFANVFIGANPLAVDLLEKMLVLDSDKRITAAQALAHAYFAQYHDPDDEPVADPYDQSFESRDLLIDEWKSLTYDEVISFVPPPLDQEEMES
Nature of the data set: in vitro inhibition of p-38 (MAP) kinase, transfer of γ-33P from ATP to Myelin Basic Protein. The data set is classed as biochemical. The note with it: phosphorylated recombinant p38 MAP kinase; MBP substrate, γ-33P-ATP; 30° C. As for the experimental part: This example illustrate an assay protocol for determining in vitro inhibition of p-38 (MAP) Kinase.
The phosphorylated form of the recombinant p38 MAP kinase was expressed with SEK-1 and MEKK in E. Coli and then purified by affinity chromatography using a Nickel column.
The phosphorylated p38 MAP kinase was diluted in kinase buffer (20 mM 3-(N-morpholino)propanesulfonic acid, pH 7.2, 25 mM β-glycerol phosphate, 5 mM ethylene glycol-bis(beta-aminoethyl ether)-N,N,N′,N′-tetraacetic acid, 1 mM sodium vanadate, 1 mM dithiothreitol, 40 mM magnesium chloride). Test compound dissolved in DMSO or only DMSO (control) was added and the samples were incubated for 10 min at 30° C. The kinase reaction was initiated by the addition of a substrate cocktail containing MBP and γ-^33P-ATP. After incubating for an additional 20 min at 30° C., the reaction was terminated by adding 0.75% phosphoric acid. The phosphorylated MBP was then separated from the residual γ-^33P-ATP using a phosphocellulose membrane (Millipore, Bedford, Mass.) and quantitated using a scintillation counter (Packard, Meriden, Conn.).
`Cn1c(=O)c(-c2ccccc2Cl)cc2cnc(NC3CCC4(CC3)NC(=O)NC4=O)nc21` (stereo not drawn) [compound 29]: the IC50 is 41.5 nM.

As to `O=c1c(-c2ccccc2Cl)cc2cnc(N[C@H]3CC[C@H](O)CC3)nc2n1Cc1ccccc1` [Example 41], the half-inhibitory concentration (IC50) was found to be 5.1 nM.

With `Cn1c(=O)c(-c2ccccc2Cl)cc2cnc(N[C@H]3CC[C@H](NS(C)(=O)=O)CC3)nc21` [compound 37], the IC50 amounted to 30.5 nM.

For `Cc1ccccc1-c1cc2cnc(NC3CCN(S(=O)(=O)CC(F)(F)F)CC3)nc2n(C)c1=O.Cl` [Cpd 128], the IC50 is 0.6 nM. Turning to `Cn1c(=O)c(-c2ccccc2Cl)cc2cnc(NC3(CO)CCCC3)nc21` [Cpd 2], the IC50 amounted to 41.9 nM.

Turning to `CCn1c(=O)c(-c2ccccc2Cl)cc2cnc(NC3CCOCC3)nc21.Cl` [Cpd 136], the IC50 turned out to be 8.2 nM.

With `Cn1c(=O)c(-c2ccccc2Cl)cc2cnc(N[C@H]3CC[C@H](O)CC3)nc21` [Cpd 1], the IC50 came out at 20.5 nM. `Cn1c(=O)c(-c2ccccc2Cl)cc2cnc(N[C@H]3CC[C@H](N)CC3)nc21` [Example 38]: the IC50 was determined as 6.2 nM. As to `Cn1c(=O)c(-c2ccccc2Cl)cc2cnc(NC3CCN(C(N)=O)CC3)nc21` [compound 11], the IC50 was found to be 4.8 nM.

Regarding `Cl.N#CCn1c(=O)c(-c2ccccc2Cl)cc2cnc(N[C@H]3CC[C@H](O)CC3)nc21` [Example 44], the IC50 is 7.8 nM.

With `Cn1c(=O)c(-c2ccccc2Cl)cc2cnc(NC3CCN(CC#N)CC3)nc21` [compound 24], the IC50 is 35.5 nM.

As for `CCCS(=O)(=O)N1CCC(Nc2ncc3cc(-c4ccccc4C)c(=O)n(C)c3n2)CC1.Cl` [Cpd 126], the IC50 was 0.3 nM.

As usually defined, the melting point is the temperature, or range, at which the solid turns liquid. As a reminder, the IC50 is the midpoint of a concentration-inhibition curve.
